# Experiments:
# EGFR [1] = molecular target: T1, EGFR (Homo sapiens, UniProt P00533); experiment: EGFP-SH2 biosensor system measuring EGFR activation (internalization) in A549 cells; assay type: cell-based; conditions: 100 μM, compared to DMSO control
# Experimental: Using these characteristics, a biosensor system was manufactured such that EGFR internalization by the EGFR activation could be measured by a fluorescent protein. Specifically, an EGFP-SH2 vector was manufactured by removing only the SH2 domain of Grb2 and inserted it in an enhanced green fluorescent protein (EGFP) vector using recombinant DNA technology, and then introduced it into A549 cells for expression.
# After being cultured in a serum-free medium for 24 hours, the cells were treated with piperonylic acid.
# HaCaT cells [2] = experiment: Cytotoxicity by MTT in HaCaT keratinocytes; assay type: cell-based
# Experimental: The cytotoxicity of piperonylic acid was measured using HaCaT cells which are keratinocytes. When cells are treated with a yellow water-soluble substrate MTT tetrazolium, the substrate is reduced to MTT formazan by mitochondrial enzymes and the color changes to blue-violet. Since the more living cells there are, the darker the blue-violet color appears, the blue-violet absorbance at 540 nm reflects the concentration of living cells. Specifically, after cells were cultured fully in each well of a 96-well plate, cells were treated with piperonylic acid at a concentration of 0, 25, 50, 100, 250, and 500 μM and cultured at 37° C. in a 5% CO2 incubator for 24 hours and 48 hours, and then the viability of cells was measured by an MTT reagent. A control (0 μM) that had not been treated with piperonylic acid was treated with an equal amount of solvent, DMSO.
# ERK = ERK activation (phosphorylation) in HaCaT cells, Western blotting; assay type: cell-based
# Experimental: (§1) It is well known that the activation of extracellular signal-regulated kinase (ERK) and protein kinase B (AKT) are induced by the EGFR activation and transmit signals required for cell growth and survival. Accordingly, as the activation of EGFR by piperonylic acid was verified in Examples 2 and 3, it was determined whether ERK and AKT, the downstream of EGFR, were also activated by piperonylic acid. Specifically, after HaCaT cells were cultured in a serum-free medium, the cells were treated with piperonylic acid at 0, 25, and 100 μM, and then ERK and AKT, which were activated when phsphorylated, were analyzed by Western blotting method. As antibodies, phosphor-site specific antibodies which are labeling factors of activated ERK and AKT and antibodies that measure total ERK and AKT were used, and GAPDH expressed from a housekeeping gene was measured in order to correct the amount of total proteins between lanes.
# (§2) Subsequently, in order to confirm the pattern of ERK and AKT activities by piperonylic acid treatment over time, HaCaT cells cultured in a serum-free medium were treated with piperonylic acid, and then the activity pattern over time was analyzed.
# (§3) In order to verify that the activation of ERK and AKT by piperonylic acid were induced by EGFR, the activity of EGFR was suppressed by treating cells with tyrphostin AG1478 which is an EGFR antagonist, and then the activities of ERK and AKT by piperonylic acid were analyzed.
# AKT = AKT activation (phosphorylation) in HaCaT cells, Western blotting; assay type: cell-based
# Experimental: as §1, §2, §3
# [3] = system: c-myc, c-jun, c-fos, and egr-1 genes; experiment: Change in gene expression in HaCaT cells (real-time quantitative PCR, Western blotting); assay type: cell-based
# Source text: Signaling by EGFR induces gene expression that is important for cell growth and survival via important signaling mediator proteins which are ERK and AKT. It is well known that c-myc, c-jun, c-fos, and egr-1 genes are genes which are regulated by EGFR and promote cell growth and survival. […] Specifically, a Tri-reagent was used for mRNA extraction, cDNA was made by a reverse transcription polymerase chain reaction (RT-PCR) using a poly-A primer and a reverse transcriptase, and the amount of each mRNA was measured using real-time quantitative PCR. The amount of each mRNA was corrected with the amount of β-actin which is a housekeeping gene.
# HaCaT cells [4] = experiment: Growth promotion of keratinocytes by CCK-8 assay; assay type: cell-based; conditions: 50 μM and 100 μM, 24 hours, serum-free, compared to the negative control
# Experimental: Cell counting kit-8 (CCK-8) is a water-soluble tetrazolium salt reagent called WST-8, and forms orange water-soluble formazan by a dehydrogenase in the mitochondria of living cells. The absorbance of the orange wavelength at 450 nm as indicated by CCK-8 reflects the number of cells, and thus has been used to measure cell growth and proliferation. The growth promotion efficacy of keratinocytes, HaCaT cells, was measured by CCK-8 assay using non-cytotoxic piperonylic acid at a concentration of 50 μM and 100 μM. Specifically, after 1×10^4 HaCaT cells were cultured on a 96-well plate for 24 hours, growth factors in the medium were removed by exchanging the medium with a serum-free medium, and then the cells were treated with piperonylic acid. […] After the cells were cultured for 24 hours, the cell growth was analyzed by treating the cells with CCK8 and measuring the absorbance at 450 nm.
# HaCaT cells [5] = experiment: Wound healing assay in keratinocytes; assay type: cell-based; conditions: 50 μM and 100 μM, culturing for 3 days, vs negative control
# Experimental: Further, the cell growth promotion efficacy by piperonylic acid was confirmed through a wound healing assay. Specifically, after HaCaT cells were cultured fully on a 12-well plate, a wound area was formed using a yellow tip, and the cells were treated with piperonylic acid at 50 μM and 100 μM after exchanging the medium with a serum-free medium.
# HaCaT cells [6] = experiment: Resistance to UVB-induced cell damage, cell viability by CCK-8; assay type: cell-based; conditions: UVB at 25 mJ/cm^2, 100 μM; negative control 84%
# Experimental: Among the ultraviolet wavelengths, the UVB wavelength corresponding to 280 to 315 nm penetrates the epidermal layer where many keratinocytes are present to cause cell damage. […] The solvent DMSO was used as a negative control, and cell viability was measured using the CCK-8 method used in Example 7.
# [7] = system: dermal papilla cells related to androgenic alopecia; experiment: Proliferation of dermal papilla cells related to androgenic alopecia by MTT; assay type: cell-based, human; conditions: 50 μM, 24 hours, serum-free, vs DMSO
# Source text: The dermal papilla cells related to androgenic alopecia used in the experiment were a cell line that was immortalized by inserting hTERT and SV40-Tag into dermal papilla cells (DPCs, passage 1) derived from male androgenic alopecia patients, and purchased from Epibiotech Co., Ltd. and used. The proliferation of dermal papilla cells was confirmed using MTT tetrazolium. MTT tetrazolium is reduced to MTT formazan by intracellular mitochondrial enzymes, and at this time, the yellow color turns blue violet. The more cells there are, the stronger the reduction, so a stronger blue violet color appears, and the concentration of living cells is measured by measuring the absorbance of the blue violet color at 540 nm. Specifically, 1×10^4 cells are aliquoted into 96-well cell culture plates and cultured for 24 hours. Thereafter, a serum-free medium was treated with 50 μM piperonylic acid, and then cultured for 24 hours. Then, after the cells were treated with the MTT reagent for 2 hours, cell growth was analyzed by adding DMSO thereto and confirming the color development at […]. A solvent DMSO was used as a negative control.
# cyclin D = experiment: Cyclin D protein level in dermal papilla cells, western blotting; assay type: cell-based, human; conditions: 25 and 50 μM, 24 hours, compared to the control
# Experimental: In addition, in order to investigate a gene expression pattern involved in the proliferation of dermal papilla cells related to androgenic alopecia, the human dermal papilla cells were cultured in a serum-free medium for 24 hours, and then treated with 25 and 50 μM piperonylic acid, respectively. The cells were treated with a drug, and after 24 hours, the levels of cyclin D were analyzed by the western blotting method. As an antibody, GAPDH, which is always expressed constantly, was used to correct the total protein amount between the cyclin D antibody and each lane. A solvent DMSO was used as a negative control.
# [8] = system: dermal papilla cells related to androgenic alopecia; experiment: Scratch (yellow tip) proliferation assay in dermal papilla cells related to androgenic alopecia; assay type: cell-based, human; conditions: 100 μM, 24 hours and 48 hours, serum-free, vs DMSO
# Source text: Meanwhile, in order to investigate the proliferation pattern of dermal papilla cells related to androgenic alopecia during treatment with piperonylic acid, a 12-well cell culture plate was fully filled with the dermal papilla cells, and the cells were injured using a yellow tip. […] A solvent DMSO was used as a negative control.
# EGFR [9] = molecular target: T1, EGFR; experiment: Pull-down of EGFR from HaCaT cell lysate with piperonylic acid-conjugated Sepharose 4B bead, Western blotting; assay type: binding; parameters: endogenous in cells; host or cells: HaCaT cells; conditions: 100 μM of free piperonylic acid added with the cell lysate
# Experimental: In order to investigate the mechanism of EGFR activation by piperonylic acid confirmed in Example 2, it was confirmed in the present example whether piperonylic acid could interact with EGFR. For this purpose, piperonylic acid-4B bead was manufactured by conjugating piperonylic acid to a Cyanogen bromide-activated-Sepharose 4B bead purchased from Sigma-Aldrich. Equal amounts of HaCaT cell lysates were incubated with piperonylic acid-4B bead and control-4B used as the control, and proteins bound to the bead were analyzed by the Western blotting method. An anti-EGFR antibody was used in order to measure EGFR among the precipitated proteins, and anti-Actin and anti-GAPDH antibodies against actin and GAPDH proteins present in large amounts as housekeeping genes were used in order to support that the binding to piperonylic acid was selective.
# EGFR [10] = molecular target: T1, EGFR; experiment: Tyrosine phosphorylation of EGFR in HaCaT cells (immunoprecipitation, Western blotting); assay type: cell-based; parameters: endogenous in cells; host or cells: HaCaT cells; conditions: 100 μM for 10 minutes, compared to DMSO
# Experimental: In order to confirm whether the binding of piperonylic acid with EGFR directly induces the EGFR activation, HaCaT cells cultured in a serum-free medium were treated with piperonylic acid at a concentration of 100 μM for 10 minutes, and then the activation was measured through an increasing tyrosine phosphorylation of EGFR. Specifically, after only EGFR was precipitated from 500 μg of cell lysate by immunoprecipitation using anti-EGFR antibody and protein-G agarose beads, the level of tyrosine phosphorylation was analyzed by Western blotting method.
# [11] = 100 μM, 10 minutes, compared to the control
# [12] = piperonylic acid treatment, serum-free medium
# [13] = AG1478 at 200 nM for 10 minutes, then piperonylic acid
# T1 sequence (P00533 25-1210): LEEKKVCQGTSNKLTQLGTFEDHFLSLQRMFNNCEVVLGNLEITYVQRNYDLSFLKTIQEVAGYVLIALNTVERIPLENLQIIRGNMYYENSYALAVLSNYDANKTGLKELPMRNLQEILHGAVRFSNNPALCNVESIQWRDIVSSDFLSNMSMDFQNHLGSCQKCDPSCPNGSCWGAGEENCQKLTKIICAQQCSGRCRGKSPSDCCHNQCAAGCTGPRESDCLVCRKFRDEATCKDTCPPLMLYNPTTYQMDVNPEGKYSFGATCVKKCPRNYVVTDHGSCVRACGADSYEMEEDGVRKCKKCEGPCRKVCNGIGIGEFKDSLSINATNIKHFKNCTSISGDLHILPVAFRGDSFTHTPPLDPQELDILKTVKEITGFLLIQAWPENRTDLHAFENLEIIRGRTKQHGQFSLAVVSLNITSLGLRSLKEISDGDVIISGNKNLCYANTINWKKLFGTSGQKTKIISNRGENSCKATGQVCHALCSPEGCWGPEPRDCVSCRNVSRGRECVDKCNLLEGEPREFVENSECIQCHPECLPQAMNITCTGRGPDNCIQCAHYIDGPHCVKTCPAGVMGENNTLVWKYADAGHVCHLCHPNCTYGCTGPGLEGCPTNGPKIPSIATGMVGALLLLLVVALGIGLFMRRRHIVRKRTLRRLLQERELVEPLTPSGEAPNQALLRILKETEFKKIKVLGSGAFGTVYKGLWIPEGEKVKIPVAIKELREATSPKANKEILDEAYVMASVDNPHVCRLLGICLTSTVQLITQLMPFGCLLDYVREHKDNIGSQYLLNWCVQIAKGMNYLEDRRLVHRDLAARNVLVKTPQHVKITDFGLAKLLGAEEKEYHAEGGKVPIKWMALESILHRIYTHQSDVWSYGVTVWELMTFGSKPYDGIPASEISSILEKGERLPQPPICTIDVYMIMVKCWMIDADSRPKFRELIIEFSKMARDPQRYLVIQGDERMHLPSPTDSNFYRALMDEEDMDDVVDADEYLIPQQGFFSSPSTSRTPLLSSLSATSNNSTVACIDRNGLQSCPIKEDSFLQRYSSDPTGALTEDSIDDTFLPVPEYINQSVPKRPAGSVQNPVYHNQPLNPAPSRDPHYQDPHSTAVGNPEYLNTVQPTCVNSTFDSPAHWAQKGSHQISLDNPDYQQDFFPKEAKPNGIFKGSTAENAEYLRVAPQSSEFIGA
Structure (SMILES),EGFR activation in biosensor system (change in fluorescence signal) (EGFR [1]),"cytotoxicity to keratinocytes (HaCaT cells [2]; 0-500 μM, 24 and 48 hours)",difference in cell viability from control (HaCaT cells [2]; 500 μM for 48 hours),ERK activation (ERK; [11]) [fold],pattern of ERK activity over time (ERK; [12]),AKT activation (AKT; [11]) [fold],pattern of AKT activity over time (AKT; [12]),expression of Egr-1 and c-Fos proteins ([3]; 100 μM),"mRNA expression of c-jun ([3]; 100 μM, 0, 1, 2, and 6 hours)",cell growth and proliferation (CCK-8) (HaCaT cells [4]),filling of wound area (HaCaT cells [5]),cells survived after UVB (HaCaT cells [6]) [%],cell proliferation of dermal papilla cells (MTT) [7],expression of cyclin D protein (cyclin D),cell proliferation of dermal papilla cells (scratch) [8],amount of EGFR bound to bead under competition (EGFR [9]),tyrosine phosphorylation of EGFR (EGFR [10]) [fold],ERK activation by piperonylic acid after EGFR antagonist (ERK; [13]),AKT activation by piperonylic acid after EGFR antagonist (AKT; [13]),"gene expression of c-fos and egr-1 increased by piperonylic acid ([3]; AG1478 pre-treatment, piperonylic acid at 100 μM, 2 hours)"
O=C(O)c1ccc2c(c1)OCO2 [piperonylic acid],EGFR was activated,very low,about 10%,3.3,rapidly induced for 5 to 10 minutes,2.1,rapidly induced for 5 to 10 minutes,increase in expression,increasing tendency,significantly increased,more rapidly filled,89,promoted cell proliferation,significantly increased,promoted cell proliferation,the amount of EGFR bound thereto was reduced,1.8,,,
"COc1cc2ncnc(Nc3cccc(Cl)c3)c2cc1OC [AG1478, tyrphostin AG1478, reference compound]",,,,,,,,,,,,,,,,,,not activated,not activated,completely suppressed
